According to publication doi:10.1101/2021.09.15.460527v1 (bioRxiv, 2021):
Starred links: 1 amine or outer side, 2 acyl side, 3 side chain; linkers in the order of their positions; H or OH if unused. Groups on a side chain read outwards from the residue. No end group written: not given here. *: point of attachment. γGlu = O=C(O)[C@H](CCC(=O)[*:2])N[*:1]; Palmitoyl = CCCCCCCCCCCCCCCC(=O)*

System: rats with heroin self-administration experience
Assay: Cue-induced heroin seeking
Format: in vivo, rat
Conditions: 0.3 mg/kg sc

## liraglutide (HAEGTFTSDVSSYLEGQAAK([γGlu-Palmitoyl])EFIAWLVRGRG; chains of the INN, looked up)
  Minimum effective pretreatment time: between four and six
